Source: the NIST ThermoML archive (doi:10.1016/j.tca.2013.08.031)

Test: molar heat capacity at constant volume
Conditions: Fluid (supercritical or subcritical phases), Vacuum adiabatic calorimetry

CCC(C)O (stereo not given) [butan-2-ol]
Conditions	molar heat capacity at constant volume [J/K/mol]
535.75 K, Mass density=276.45 kg/m3	527.97
535.77 K, Mass density=276.45 kg/m3	533.08
535.79 K, Mass density=276.45 kg/m3	548.5
535.81 K, Mass density=276.45 kg/m3	529.67
535.83 K, Mass density=276.45 kg/m3	536.49
535.85 K, Mass density=276.45 kg/m3	560.43
535.86 K, Mass density=276.45 kg/m3	562.14
535.88 K, Mass density=276.45 kg/m3	565.55
535.9 K, Mass density=276.45 kg/m3	627.07
535.92 K, Mass density=198.25 kg/m3	287.44
535.92 K, Mass density=245.67 kg/m3	437.17
535.92 K, Mass density=276.45 kg/m3	603.13
535.92 K, Mass density=279.19 kg/m3	513.14
535.92 K, Mass density=284.93 kg/m3	498.99
535.92 K, Mass density=286.65 kg/m3	532.71
535.92 K, Mass density=301.19 kg/m3	383.21
535.92 K, Mass density=347.06 kg/m3	252.01
535.94 K, Mass density=284.93 kg/m3	419.68
535.94 K, Mass density=286.65 kg/m3	578.37
535.95 K, Mass density=284.93 kg/m3	421.31
535.95 K, Mass density=286.65 kg/m3	524.41
535.97 K, Mass density=284.93 kg/m3	349.85
535.97 K, Mass density=286.65 kg/m3	524.41
535.99 K, Mass density=284.93 kg/m3	316.57
536.01 K, Mass density=284.93 kg/m3	314.87
536.01 K, Mass density=286.65 kg/m3	402.85
536.02 K, Mass density=284.93 kg/m3	309.9
536.02 K, Mass density=286.65 kg/m3	345.48
536.04 K, Mass density=284.93 kg/m3	311.53
536.04 K, Mass density=286.65 kg/m3	354.45
536.06 K, Mass density=284.93 kg/m3	311.53
536.06 K, Mass density=286.65 kg/m3	328.36
536.07 K, Mass density=284.93 kg/m3	306.57
536.07 K, Mass density=286.65 kg/m3	328.58
536.1 K, Mass density=198.25 kg/m3	281.66
536.1 K, Mass density=245.67 kg/m3	331.55
536.1 K, Mass density=279.19 kg/m3	476.23
536.1 K, Mass density=284.93 kg/m3	291.59
536.1 K, Mass density=286.65 kg/m3	323.99
536.1 K, Mass density=301.19 kg/m3	296.49
536.1 K, Mass density=347.06 kg/m3	251.27
536.29 K, Mass density=198.25 kg/m3	285.44
536.29 K, Mass density=245.67 kg/m3	329.17
536.29 K, Mass density=276.45 kg/m3	321.32
536.29 K, Mass density=279.19 kg/m3	304.71
536.29 K, Mass density=284.93 kg/m3	286.04
536.29 K, Mass density=286.65 kg/m3	321.09
536.29 K, Mass density=301.19 kg/m3	280.18
536.29 K, Mass density=347.06 kg/m3	249.79
536.47 K, Mass density=245.67 kg/m3	323.47
536.47 K, Mass density=276.45 kg/m3	313.68
536.47 K, Mass density=279.19 kg/m3	298.27
536.47 K, Mass density=284.93 kg/m3	280.77
536.47 K, Mass density=286.65 kg/m3	317.39
536.47 K, Mass density=301.19 kg/m3	281.66
536.47 K, Mass density=347.06 kg/m3	252.75
536.65 K, Mass density=245.67 kg/m3	321.24
536.65 K, Mass density=276.45 kg/m3	308.64
536.65 K, Mass density=279.19 kg/m3	293.23
536.65 K, Mass density=284.93 kg/m3	276.92
536.65 K, Mass density=286.65 kg/m3	311.53
536.65 K, Mass density=301.19 kg/m3	277.96
536.65 K, Mass density=347.06 kg/m3	246.82
536.83 K, Mass density=245.67 kg/m3	318.35
536.83 K, Mass density=276.45 kg/m3	300.12
536.83 K, Mass density=279.19 kg/m3	287.74
536.83 K, Mass density=284.93 kg/m3	274.25
536.84 K, Mass density=347.06 kg/m3	250.53
537.02 K, Mass density=279.19 kg/m3	289.37
537.02 K, Mass density=284.93 kg/m3	272.03
537.02 K, Mass density=301.19 kg/m3	263.13
537.02 K, Mass density=347.06 kg/m3	248.31
537.2 K, Mass density=245.67 kg/m3	296.34
537.2 K, Mass density=276.45 kg/m3	295.37
537.2 K, Mass density=279.19 kg/m3	287.81
537.2 K, Mass density=284.93 kg/m3	271.51
537.2 K, Mass density=286.65 kg/m3	304.94
537.2 K, Mass density=301.19 kg/m3	266.84
537.38 K, Mass density=245.67 kg/m3	296.56
537.38 K, Mass density=276.45 kg/m3	285.37
537.38 K, Mass density=279.19 kg/m3	282.48
537.38 K, Mass density=284.93 kg/m3	270.32
537.38 K, Mass density=286.65 kg/m3	304.42
537.38 K, Mass density=301.19 kg/m3	263.13
537.57 K, Mass density=245.67 kg/m3	297.52
537.57 K, Mass density=276.45 kg/m3	284.11
537.57 K, Mass density=279.19 kg/m3	284.26
537.57 K, Mass density=284.93 kg/m3	268.17
537.57 K, Mass density=286.65 kg/m3	301.23
537.57 K, Mass density=301.19 kg/m3	260.17
537.75 K, Mass density=276.45 kg/m3	282.92
537.75 K, Mass density=284.93 kg/m3	267.36
537.75 K, Mass density=286.65 kg/m3	302.27
537.75 K, Mass density=301.19 kg/m3	260.17
537.93 K, Mass density=117 kg/m3	227.92
537.93 K, Mass density=279.19 kg/m3	277.21
537.93 K, Mass density=286.65 kg/m3	301.23
537.93 K, Mass density=301.19 kg/m3	259.43
538.11 K, Mass density=117 kg/m3	182.93
538.11 K, Mass density=279.19 kg/m3	274.92
538.11 K, Mass density=301.19 kg/m3	253.5
538.3 K, Mass density=279.19 kg/m3	277.66
538.3 K, Mass density=286.65 kg/m3	295.15
538.3 K, Mass density=301.19 kg/m3	255.72
538.48 K, Mass density=117 kg/m3	269.06
